Patent US20220175766A1, “COMPOSITIONS AND METHODS OF TREATMENT” (GB004, Inc., priority 2019, published 2022)

Assays:
[1] = Biopharmaceutical Classification System (BCS) classification; type: physicochemical; conditions: low solubility/dissolution rate and high permeability
Description: Compound 1 can be classified as a BCS Class 2 compound (according to the Biopharmaceutical Classification System as defined by the “Guidance for Industry: Waiver of In Vivo Bioavailability and Bioequivalence studies for immediate release solid oral dosage forms based on a Biopharmaceutics Classification System”) which indicates it has a low solubility/dissolution rate and high permeability.

[2] = Phase 1a multiple ascending dose study: Compound 1 concentration in colon tissue (colonic mucosal biopsy); type: in vivo, human
Description: Colonic mucosal biopsy samples were acquired.

CC(C)(C)OC(=O)N1CCN(Cc2ccn(Cc3ccc(Cl)cc3)c(=O)c2O)CC1 [Compound 1, tert-butyl 4-((1-(4-chlorobenzyl)-3-hydroxy-2-oxo-1,2-dihydropyridin-4-yl)methyl)piperazine-1-carboxylate]
BCS classification [1]: BCS Class 2
Compound 1 Concentration in Colon Tissue, Median (Range) ([2]; Cohort 2, 120 mg): 10.75 (0-1150) ng/g
Compound 1 Concentration in Colon Tissue, Median (Range) ([2]; Cohort 3, 240 mg): 23.50 (0-301) ng/g
Compound 1 Concentration in Colon Tissue, Median (Range) ([2]; Cohort 4, 120 mg): 127.47 (0-3330) ng/g
Compound 1 Concentration in Colon Tissue, Median (Range) ([2]; Cohort 5, 60 mg): 102.30 (0-1360) ng/g
Compound 1 colon tissue levels (in words) ([2]; colonic mucosal biopsy samples): increase in a dose-dependent manner
